US20180000085A1, “USE OF PICOLINAMIDE COMPOUNDS WITH FUNGICIDAL ACTIVITY” (DOW AGROSCIENCES LLC, priority 2014, published 2018)

Tests used:
Zymoseptoria tritici = assay: Leaf blotch of wheat (SEPTTR) disease control on wheat seedlings; type: in vivo; set-up: key to SEPTTR 1DP, HV activity at 100 ppm (% control rating) / SEPTTR 3DC, HV activity at 100 ppm (% control rating) / SEPTTR disease control, 1DP / SEPTTR disease control, 3DC / SEPTTR 1DP disease control rating, HV activity / SEPTTR 3DC disease control rating, HV activity / SEPTTR 3DC, LV activity at 125.1 g/H (% Control rating) / SEPTTR 1DP, LV activity at 125.1 g/H (% Control rating) / SEPTTR 1DP disease control rating, LV activity at 125.1 g/H / SEPTTR 3DC disease control rating, LV activity at 125.1 g/H / SEPTTR 3DC disease control rating, HV activity at 100 ppm / SEPTTR 1DP disease control rating, HV activity at 100 ppm / HV activity at 100 ppm SEPTTR 3DC (disease control rating) / HV activity at 100 ppm SEPTTR 1DP (disease control rating) / LV activity at 125.1 g/H SEPTTR 1DP (disease control rating) / LV activity at 125.1 g/H SEPTTR 3DC (disease control rating): A: > 80; B: ≤ 80; C: Not Tested; D: No Activity Observed in the Reported Assay; conditions: wheat leaf blotch; for SEPTTR 1DP disease control rating, HV activity / SEPTTR 3DC disease control rating, HV activity: HV application at 100 ppm
Puccinia triticina = assay: Wheat brown rust (PUCCRT) disease control on wheat seedlings; type: in vivo; set-up: key to PUCCRT 3DC, HV activity at 100 ppm (% control rating) / PUCCRT disease control, 3DC / PUCCRT 1DP disease control rating, HV activity / PUCCRT 3DC disease control rating, HV activity / PUCCRT 3DC, LV activity at 125.1 g/H (% Control rating) / PUCCRT 1DP, LV activity at 125.1 g/H (% Control rating) / PUCCRT 3DC disease control rating, LV activity at 125.1 g/H / PUCCRT 1DP disease control rating, LV activity at 125.1 g/H / PUCCRT 3DC disease control rating, HV activity at 100 ppm / PUCCRT 1DP disease control rating, HV activity at 100 ppm / HV activity at 100 ppm PUCCRT 3DC (disease control rating) / LV activity at 125.1 g/H PUCCRT 1DP (disease control rating) / LV activity at 125.1 g/H PUCCRT 3DC (disease control rating): A: > 80; B: ≤ 80; C: Not Tested; D: No Activity Observed in the Reported Assay; conditions: wheat brown rust; for PUCCRT 1DP disease control rating, HV activity / PUCCRT 3DC disease control rating, HV activity: HV application at 100 ppm
[1] = Low volume application at 125.1 g/H, 1 Day Protectant
[2] = Low volume application at 125.1 g/H, 3 Day Curative

Structure (SMILES) | SEPTTR 1DP disease control rating, HV activity (Zymoseptoria tritici; 1 Day Protectant) | SEPTTR 3DC disease control rating, HV activity (Zymoseptoria tritici; 3 Day Curative) | PUCCRT 1DP disease control rating, HV activity (Puccinia triticina; 1 Day Protectant) | PUCCRT 3DC disease control rating, HV activity (Puccinia triticina; 3 Day Curative) | SEPTTR 1DP disease control rating, LV activity (Zymoseptoria tritici; [1]) | SEPTTR 3DC disease control rating, LV activity (Zymoseptoria tritici; [2]) | PUCCRT 1DP disease control rating, LV activity (Puccinia triticina; [1]) | PUCCRT 3DC disease control rating, LV activity (Puccinia triticina; [2])
CCC(CC)C(Oc1cc(F)ccc1F)C(C)OC(=O)C(C)NC(=O)c1nccc(OC)c1O (stereo not shown) [Cmpd 422] | A (> 80) | B (≤ 80) | A (> 80) | B (≤ 80) |  |  |  | 
CCC(CC)C(Oc1cc(F)cc(Cl)c1)C(C)OC(=O)C(C)NC(=O)c1nccc(OC)c1O (stereo not shown) [Cmpd 423] | A (> 80) | A (> 80) | A (> 80) | B (≤ 80) |  |  |  | 
CC(NC(=O)c1ncccc1O)C(=O)OC(C)C(Oc1ccccc1)C(C)C (stereo not shown) [Cmpd 424] | A (> 80) | A (> 80) | A (> 80) | A (> 80) |  |  |  | 
CC(NC(=O)c1nccc(Cl)c1O)C(=O)OC(C)C(Oc1ccccc1)C(C)C (stereo not shown) [Cmpd 425] | D | D | B (≤ 80) | D |  |  |  | 
CCC(CC)C(Oc1cccc(F)c1)C(C)OC(=O)C(CC(C)C)NC(=O)c1nccc(OC)c1O (stereo not shown) [Cmpd 426] | D | D | B (≤ 80) | D |  |  |  | 
CCC(CC)C(Oc1ccc(Cl)cc1)C(C)OC(=O)C(CC(C)C)NC(=O)c1nccc(OC)c1O (stereo not shown) [Cmpd 427] | D | D | B (≤ 80) | D |  |  |  | 
CCC(CC)C(Oc1cc(F)ccc1F)C(C)OC(=O)C(CC(C)C)NC(=O)c1nccc(OC)c1O (stereo not shown) [Cmpd 428] | D | D | B (≤ 80) | D |  |  |  | 
CCC(CC)C(Oc1cc(F)cc(Cl)c1)C(C)OC(=O)C(CC(C)C)NC(=O)c1nccc(OC)c1O (stereo not shown) [Cmpd 429] | B (≤ 80) | D | B (≤ 80) | D |  |  |  | 
CCC(CC)C(Oc1ccc(Cl)cc1Cl)C(C)OC(=O)C(CC(C)C)NC(=O)c1nccc(OC)c1O (stereo not shown) [Cmpd 430] | D | D | B (≤ 80) | D |  |  |  | 
COc1ccnc(C(=O)NC(C)C(=O)OC(C)C(OC(=O)c2ccccc2)C(C)C)c1O (stereo not shown) [Cmpd 431] | D | D | A (> 80) | D |  |  |  | 
COc1ccnc(C(=O)NC(C)C(=O)OC(C)C(Oc2cccc(Cl)c2)C(C)C)c1O (stereo not shown) [Cmpd 432] | A (> 80) | D | A (> 80) | B (≤ 80) |  |  |  | 
COc1ccnc(C(=O)NC(C)C(=O)OC(C)C(Oc2cccc(C(F)(F)F)c2)C(C)C)c1O (stereo not shown) [Cmpd 433] | D | D | A (> 80) | A (> 80) |  |  |  | 
COc1ccnc(C(=O)NC(C)C(=O)OC(C)C(Oc2cccc3ccccc23)C(C)C)c1O (stereo not shown) [Cmpd 434] | A (> 80) | D | A (> 80) | D |  |  |  | 
CCCOC(C(C)C)C(C)OC(=O)C(C)NC(=O)c1nccc(OC)c1O (stereo not shown) [Cmpd 435] | D | D | B (≤ 80) | B (≤ 80) |  |  |  | 
COc1ccnc(C(=O)NC(C)C(=O)OC(C)C(Oc2ccccc2)c2cccs2)c1O (stereo not shown) [Cmpd 436] | A (> 80) | B (≤ 80) | B (≤ 80) | B (≤ 80) |  |  |  | 
C=CCC(Oc1ccccc1)C(C)OC(=O)C(C)NC(=O)c1nccc(OC)c1O (stereo not shown) [Cmpd 437] | B (≤ 80) | A (> 80) | A (> 80) | A (> 80) |  |  |  | 
CCCC(Oc1ccccc1)C(C)OC(=O)C(C)NC(=O)c1nccc(OC)c1O (stereo not shown) [Cmpd 438] | A (> 80) | A (> 80) | A (> 80) | A (> 80) |  |  |  | 
C=CCC(Oc1ccc(Cl)cc1Cl)C(C)OC(=O)C(C)NC(=O)c1nccc(OC)c1O (stereo not shown) [Cmpd 439] | B (≤ 80) | D | A (> 80) | A (> 80) |  |  |  | 
CCC(C)C(Oc1ccccc1)C(C)OC(=O)C(C)NC(=O)c1nccc(OC)c1O (stereo not shown) [Cmpd 440] | A (> 80) | A (> 80) | A (> 80) | A (> 80) |  |  |  | 
COc1ccnc(C(=O)NC(C)C(=O)OC(C)C(OCC2CC2)c2cccc(-c3ccccc3)c2)c1O (stereo not shown) [Cmpd 442] | D | B (≤ 80) | B (≤ 80) | B (≤ 80) |  |  |  | 
CCCC(NC(=O)c1nccc(OC)c1OCOC(C)=O)C(=O)OC(C)C(CCc1ccccc1)OCC(C)C (stereo not shown) [Cmpd 444] | A (> 80) | A (> 80) | A (> 80) | B (≤ 80) |  |  |  | 
CCC(Cc1ccccc1)C(OCC(C)C)C(C)OC(=O)CNC(=O)c1nccc(OC)c1OCOC(C)=O (stereo not shown) [Cmpd 445] | B (≤ 80) | D | A (> 80) | A (> 80) |  |  |  | 
CCCOC(CC)C(Oc1ccccc1)C(C)OC(=O)C(NC(=O)c1nccc(OC)c1OCOC(C)=O)C(C)C (stereo not shown) [Cmpd 447] | A (> 80) | B (≤ 80) | A (> 80) | A (> 80) |  |  |  | 
CCCOC(CC)C(Oc1ccccc1)C(C)OC(=O)C(CC(C)C)NC(=O)c1nccc(OC)c1OCOC(C)=O (stereo not shown) [Cmpd 448] | B (≤ 80) | B (≤ 80) | A (> 80) | B (≤ 80) |  |  |  | 
CCCOC(CC)C(Oc1ccccc1)C(C)OC(=O)C(NC(=O)c1nccc(OC)c1OCOC(C)=O)C(C)CC (stereo not shown) [Cmpd 449] | A (> 80) | B (≤ 80) | A (> 80) | A (> 80) |  |  |  | 
CCCOC(CC)C(Oc1ccccc1)C(C)OC(=O)C(C)NC(=O)c1nccc(OC)c1OC(C)=O (stereo not shown) [Cmpd 450] | A (> 80) | A (> 80) | A (> 80) | A (> 80) | B (≤ 80) | B (≤ 80) | A (> 80) | A (> 80)
CCCOC(CC)C(Oc1ccccc1)C(C)OC(=O)C(NC(=O)c1nccc(OC)c1OC(C)=O)C(C)C (stereo not shown) [Cmpd 451] | B (≤ 80) | A (> 80) | A (> 80) | A (> 80) |  |  |  | 
